From patent US7652010B2 (priority 2004, dated 2010)

| melting point [°C] | Compound |
| --- | --- |
| 126.9 to 127.3 | C(#Cc1ccc(OC2CN3CCC2CC3)cc1)c1ccccc1.O=C(O)/C=C/C(=O)O (racemic) |
| 152.4 to 158.1 | Nc1cccc(C#Cc2ccc(OC3CN4CCC3CC4)nn2)c1 (racemic) [Compound C7, (±)-3-[6-(1-Aza-bicyclo[2.2.2]oct-3-yloxy)-pyridazin-3-ylethynyl]-phenylamine free base] |
| 169.5 to 175.4 | CC(=O)Nc1ccc(C#Cc2ccc(OC3CN4CCC3CC4)nn2)cc1 (racemic) [Compound C6, (±)-N-{4-[6-(1-Aza-bicyclo[2.2.2]oct-3-yloxy)-pyridazin-3-ylethynyl]-phenyl}-acetamide free base] |
| 212 to 220 | Nc1ccc(C#Cc2ccc(OC3CN4CCC3CC4)nn2)cc1 (racemic) [Compound C8, (±)-4-[6-(1-Aza-bicyclo[2.2.2]oct-3-yloxy)-pyridazin-3-ylethynyl]-phenylamine free base] |
| 133.9 to 141.6 | C(#Cc1ccc(OC2CN3CCC2CC3)nn1)c1ccsc1.O=C(O)/C=C/C(=O)O (racemic) [Compound C10, (±)-3-(6-Thiophen-3-ylethynyl-pyridazin-3-yloxy)-1-aza-bicyclo[2.2.2]octane fumaric acid salt] |
